In patent US6942876B2, “Analgesic compositions comprising anti-epileptic compounds and methods of using same” (Warner-Lambert Company, priority 1997, dated 2005):

System: Carrageenan-induced thermal hyperalgesia
Assay: carrageenan rat footpad thermal hyperalgesia test (Hargreaves test)
Format: in vivo
Protocol: In this example, gabapentin, naproxen sodium, and the combination of gabapentin and naproxen sodium were evaluated in a standard rat carrageenan footpad thermal hyperalgesia assay. This assay utilizes an extract of seaweed (carrageenan) that, when injected into the footpad of test animals, causes a sterile inflammation, thereby lowering the pain threshold.
Male Sprague-Dawley rats (200-250 g, Sasco Laboratories) were used. Rats were group housed 5/cage on a 12-hour light:dark cycle with free access to food and water. Rats received only one dose of a drug or drug combination. All drugs were administered orally by gavage.
Dose-effect curves were first determined for (1) gabapentin by itself and (2) a prototypic NSAID (e.g., naproxen) by itself The ED50 value and 95% confidence limits of each agent was determined, as was the time to peak effect. […]
Carrageenan-induced thermal hyperalgesia: Rats were acclimated to a testing chamber whose glass floor was maintained at 25° C. Thirty minutes later, a high intensity beam of light was focused through the glass on the ventral surface of each hindpaw, and the latency to reflex withdrawal of the paw from the light beam was measured to the nearest 0.1 second. […]
Data were expressed as the mean ±SEM. […]

COc1ccc2cc([C@H](C)C(=O)O)ccc2c1 [Naproxen sodium, naproxen sodium]
anti-hyperalgesic action (PO, gabapentin 3-100 mg/kg, naproxen sodium 0.3-30 mg/kg, fixed-ratio combinations at various dosages): anti-hyperalgesic actions
ED50 (Rattus norvegicus, 2 h, single drug, oral gavage, male Sprague-Dawley rats, paw flick latency 120 min after dosing, 95% confidence limits in parentheses): 0.36 mg/kg
